{"source": "PubChem BioAssay AID270", "about": "(DTP/NCI, 2004)", "system": "BDF1 mice, s.c. Lewis lung carcinoma, T/C %", "experiment": "NCI In Vivo Anticancer Drug Screen. Data for tumor model Lewis Lung Carcinoma (subcutaneous) in B6D2F1 (BDF1) mice", "procedure,_shortened": "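Antitumor effect in vivo is scored from survival or tumor burden, reported as treated relative to vehicle controls.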", "note": "Several values for one entry are separate records, joined by “and”; a condition that tells them apart may be missing. Equal values may be shown once. Records with an inconclusive call do not appear.", "data": [{"smiles": "CN(C)CCCNc1c2ccccc2nc2cccc([N+](=O)[O-])c12", "values": [{"measurement": "T/C", "setting": "endpoint: median survival time, dose: 2.0 micrograms/kg/injection, schedule: Q01DX009 (ip), vehicle: saline, higher = longer survival", "result": "98 % of control and 118 % of control"}, {"measurement": "T/C", "setting": "endpoint: median survival time, dose: 8.0 micrograms/kg/injection, schedule: Q01DX009 (ip), vehicle: saline, higher = longer survival", "result": "89 % of control"}, {"measurement": "T/C", "setting": "endpoint: median survival time, dose: 16.0 micrograms/kg/injection, schedule: Q01DX009 (ip), vehicle: saline, higher = longer survival", "result": "109 % of control"}, {"measurement": "T/C", "setting": "endpoint: median survival time, dose: 32.0 micrograms/kg/injection, schedule: Q01DX009 (ip), vehicle: saline, higher = longer survival", "result": "95 % of control"}, {"measurement": "T/C", "setting": "endpoint: median survival time, dose: 125.0 micrograms/kg/injection, schedule: Q01DX009 (ip), vehicle: saline, higher = longer survival", "result": "93 % of control"}]}, {"smiles": "Nc1nc(SN=Nc2ccc(S(N)(=O)=O)cc2)c2[nH]cnc2n1", "values": [{"measurement": "T/C", "setting": "endpoint: mean tumor weight, dose: 0.6 mg/kg/injection, schedule: Q01DX011 (ip), vehicle: saline, higher = larger tumour", "result": "64 % of control"}, {"measurement": "T/C", "setting": "endpoint: mean tumor weight, dose: 1.0 mg/kg/injection, schedule: Q01DX011 (ip), vehicle: saline, higher = larger tumour", "result": "43 % of control"}, {"measurement": "T/C", "setting": "endpoint: mean tumor weight, dose: 1.5 mg/kg/injection, schedule: Q01DX011 (ip), vehicle: saline, higher = larger tumour", "result": "93 % of control"}, {"measurement": "T/C", "setting": "endpoint: mean tumor weight, dose: 2.2 mg/kg/injection, schedule: Q01DX011 (ip), vehicle: other, higher = larger tumour", "result": "67 % of control"}, {"measurement": "T/C", "setting": "endpoint: mean tumor weight, dose: 2.2 mg/kg/injection, schedule: Q01DX011 (ip), vehicle: saline, higher = larger tumour", "result": "52 % of control and 67 % of control"}, {"measurement": "T/C", "setting": "endpoint: mean tumor weight, dose: 3.3 mg/kg/injection, schedule: Q01DX011 (ip), vehicle: other, higher = larger tumour", "result": "72 % of control"}, {"measurement": "T/C", "setting": "endpoint: mean tumor weight, dose: 3.3 mg/kg/injection, schedule: Q01DX011 (ip), vehicle: saline, higher = larger tumour", "result": "36 % of control"}, {"measurement": "T/C", "setting": "endpoint: mean tumor weight, dose: 5.0 mg/kg/injection, schedule: Q01DX011 (ip), vehicle: other, higher = larger tumour", "result": "35 % of control"}, {"measurement": "T/C", "setting": "endpoint: mean tumor weight, dose: 5.0 mg/kg/injection, schedule: Q01DX011 (ip), vehicle: saline, higher = larger tumour", "result": "40 % of control"}, {"measurement": "T/C", "setting": "endpoint: mean tumor weight, dose: 7.5 mg/kg/injection, schedule: Q01DX011 (ip), vehicle: other, higher = larger tumour", "result": "11 % of control"}, {"measurement": "T/C", "setting": "endpoint: mean tumor weight, dose: 7.5 mg/kg/injection, schedule: Q01DX011 (ip), vehicle: saline, higher = larger tumour", "result": "19 % of control"}]}, {"smiles": "NC(=O)NO", "values": [{"measurement": "T/C", "setting": "endpoint: mean tumor weight (est.), dose: 100.0 mg/kg/injection, schedule: Q01DX009 (ip), vehicle: water, higher = larger tumour", "result": "66 % of control"}, {"measurement": "T/C", "setting": "endpoint: mean tumor weight (est.), dose: 200.0 mg/kg/injection, schedule: Q01DX009 (ip), vehicle: water, higher = larger tumour", "result": "28 % of control"}, {"measurement": "T/C", "setting": "endpoint: mean tumor weight (est.), dose: 400.0 mg/kg/injection, schedule: Q01DX009 (ip), vehicle: water, higher = larger tumour", "result": "33 % of control"}, {"measurement": "T/C", "setting": "endpoint: mean tumor weight, dose: 25.0 mg/kg/injection, schedule: Q01DX011 (ip), vehicle: saline, higher = larger tumour", "result": "58 % of control"}, {"measurement": "T/C", "setting": "endpoint: mean tumor weight, dose: 50.0 mg/kg/injection, schedule: Q01DX011 (ip), vehicle: saline, higher = larger tumour", "result": "90 % of control"}, {"measurement": "T/C", "setting": "endpoint: mean tumor weight, dose: 100.0 mg/kg/injection, schedule: Q01DX011 (ip), vehicle: saline, higher = larger tumour", "result": "89 % of control"}, {"measurement": "T/C", "setting": "endpoint: mean tumor weight, dose: 200.0 mg/kg/injection, schedule: Q01DX011 (ip), vehicle: saline, higher = larger tumour", "result": "31 % of control"}, {"measurement": "T/C", "setting": "endpoint: median survival time, dose: 2.5 mg/kg/injection, schedule: Q08HX024 (ip), vehicle: saline, higher = longer survival", "result": "92 % of control"}, {"measurement": "T/C", "setting": "endpoint: median survival time, dose: 10.0 mg/kg/injection, schedule: Q08HX024 (ip), vehicle: Klucel (hydroxypropylcellulose) (HPC), higher = longer survival", "result": "181 % of control"}, {"measurement": "T/C", "setting": "endpoint: median survival time, dose: 20.0 mg/kg/injection, schedule: Q08HX024 (ip), vehicle: Klucel (hydroxypropylcellulose) (HPC), higher = longer survival", "result": "181 % of control"}, {"measurement": "T/C", "setting": "endpoint: median survival time, dose: 40.0 mg/kg/injection, schedule: Q08HX024 (ip), vehicle: Klucel (hydroxypropylcellulose) (HPC), higher = longer survival", "result": "95 % of control"}, {"measurement": "T/C", "setting": "endpoint: median survival time, dose: 40.0 mg/kg/injection, schedule: Q08HX024 (ip), vehicle: saline, higher = longer survival", "result": "90 % of control"}, {"measurement": "T/C", "setting": "endpoint: median survival time, dose: 97.0 mg/kg/injection, schedule: Q01DX009 (ip), vehicle: saline, higher = longer survival", "result": "119 % of control"}, {"measurement": "T/C", "setting": "endpoint: median survival time, dose: 100.0 mg/kg/injection, schedule: Q01DX009 (ip), vehicle: water, higher = longer survival", "result": "94 % of control"}, {"measurement": "T/C", "setting": "endpoint: median survival time, dose: 200.0 mg/kg/injection, schedule: Q01DX009 (ip), vehicle: water, higher = longer survival", "result": "100 % of control"}, {"measurement": "T/C", "setting": "endpoint: median survival time, dose: 1250.0 mg/kg/injection, schedule: Q01DX009 (ip), vehicle: saline, higher = longer survival", "result": "56 % of control"}]}, {"smiles": "CCOC(=O)c1c[nH]c2c(Cl)c(C)ccc2c1=O", "values": [{"measurement": "T/C", "setting": "endpoint: mean tumor weight, dose: 104.0 mg/kg/injection, schedule: Q01DX011 (ip), vehicle: other, higher = larger tumour", "result": "106 % of control"}, {"measurement": "T/C", "setting": "endpoint: mean tumor weight, dose: 155.0 mg/kg/injection, schedule: Q01DX011 (ip), vehicle: other, higher = larger tumour", "result": "111 % of control"}, {"measurement": "T/C", "setting": "endpoint: mean tumor weight, dose: 350.0 mg/kg/injection, schedule: Q01DX011 (ip), vehicle: other, higher = larger tumour", "result": "75 % of control"}]}, {"smiles": "Cc1nnc(NS(=O)(=O)c2ccc(N=Nc3nc4[nH]c(N)nc(=S)c4[nH]3)cc2)s1", "values": [{"measurement": "T/C", "setting": "endpoint: median survival time, dose: 25.0 mg/kg/injection, schedule: Q01DX009 (ip), vehicle: saline, higher = longer survival", "result": "109 % of control"}, {"measurement": "T/C", "setting": "endpoint: median survival time, dose: 50.0 mg/kg/injection, schedule: Q01DX009 (ip), vehicle: saline, higher = longer survival", "result": "106 % of control"}, {"measurement": "T/C", "setting": "endpoint: median survival time, dose: 100.0 mg/kg/injection, schedule: Q01DX009 (ip), vehicle: saline, higher = longer survival", "result": "98 % of control"}, {"measurement": "T/C", "setting": "endpoint: median survival time, dose: 200.0 mg/kg/injection, schedule: Q01DX009 (ip), vehicle: saline, higher = longer survival", "result": "98 % of control"}]}]}
